Results reported in patent publication US7491844B2, “Therapeutic cyclopentane derivatives” (Allergan, Inc., priority 2006, dated 2009).

Assays:
EP2 = EP2 (Homo sapiens, UniProt P43116); assay: Competition radioligand binding, [3H]PGE2, HEK 293 cells expressing EP2; parameters: expressed in transfected cells; host or cells: HEK 293 (membranes or whole cells)
Procedure: Competition binding experiments were performed in a medium containing Hank's balanced salt solution, Hepes 20 mM, pH 7.3, membranes (˜60 μg protein) or 2×10^5 cells from HEK 293 cells stably expressing human EP2 receptors, [^3H]PGE2 (10 nM) and various concentrations of test compounds in a total volume of 300 μl. Reaction mixtures were incubated at 23° C. for 60 min, and were filtered over Whatman GF/B filters under vacuum. Filters were washed three times with 5 ml ice-cold buffer containing 50 mM Tris/HCl (pH 7.3). Non-specific binding was estimated in the presence of excess unlabeled PGE2 (10 μM). Binding data fitted to the binding model for a single class of binding sites, using nonlinear regression analysis. IC50 values thus obtained were converted to Ki using the equation of Ki=(IC50/(1+[L]/KD) where [L] represents PGE2 concentration (10 nM) and KD the dissociation constant for [^3H]PGE2 at human EP2 receptors (40 nM). […]
The cell homogenate was centrifuged at 19000 r.p.m. for 20 min at 4° C. using a Beckman Ti-60 rotor. The resultant pellet was resuspended in TME buffer to give a final 1 mg/ml protein concentration, as determined by Biorad assay. […]
[^3H-] […] 17-phenyl PGF2 ? and non-specific binding determined with 10^−5M of unlabeled PGE2, or 17-phenyl PGF2 ? , according to receptor subtype studied.

hEP3A/Gqi5 = molecular target: T1, hEP3A/Gqi5 (Homo sapiens, UniProt P43115); assay: FLIPR calcium signal, HEK-293(EBNA) cells; type: cell-based; settings: read-out: Ca2+ Signal-EC50 (nM) EP3
T1 construct: expressed in transfected cells; host or cells: HEK-293(EBNA)
T1 sequence (P43115 1-390): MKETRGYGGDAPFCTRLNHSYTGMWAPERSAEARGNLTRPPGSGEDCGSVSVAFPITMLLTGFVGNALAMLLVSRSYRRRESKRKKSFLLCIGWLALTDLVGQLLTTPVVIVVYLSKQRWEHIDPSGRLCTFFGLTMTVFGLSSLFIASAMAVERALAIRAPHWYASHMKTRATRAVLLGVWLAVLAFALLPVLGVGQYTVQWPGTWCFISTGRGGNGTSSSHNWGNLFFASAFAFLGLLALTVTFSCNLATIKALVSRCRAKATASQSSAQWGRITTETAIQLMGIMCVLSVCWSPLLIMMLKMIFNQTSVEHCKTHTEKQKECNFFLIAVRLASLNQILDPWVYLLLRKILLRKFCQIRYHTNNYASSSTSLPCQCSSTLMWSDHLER
Procedure: (§1) HEK-293(EBNA) cells, stably expressing one type or subtype of recombinant human prostaglandin receptors (prostaglandin receptors expressed: hDP/Gqs5; hEP1; hEP2/Gqs5; hEP3A/Gqi5; hEP4/Gqs5; hFP; hiP; hTP), were cultured in 100 mm culture dishes in high-glucose DMEM medium containing 10% fetal bovine serum, 2 mM l-glutamine, 250 ? g/ml geneticin (G418) and 200 ? g/ml hygromycin B as selection markers, and 100 units/ml penicillin G, 100 ? g/ml streptomycin and 0.25 ? g/ml amphotericin B.
(§2) Cells were seeded at a density of 5×10^4 cells per well in Biocoat® Poly-D-lysine-coated black-wall, clear-bottom 96-well plates (Becton-Dickinson) and allowed to attach overnight in an incubator at 37° C. Cells were then washed two times with HBSS-HEPES buffer (Hanks Balanced Salt Solution without bicarbonate and phenol red, 20 mM HEPES, pH 7.4) using a Denley Cellwash plate washer (Labsystems). After 45 minutes of dye-loading in the dark, using the calcium-sensitive dye Fluo-4 AM at a final concentration of 2 ? M, plates were washed four times with HBSS-HEPES buffer to remove excess dye leaving 100 ? l in each well. Plates were re-equilibrated to 37° C. for a few minutes.
(§3) Cells were excited with an Argon laser at 488 nm, and emission was measured through a 510-570 nm bandwidth emission filter (FLIPR™, Molecular Devices, Sunnyvale, Calif.). Drug solution was added in a 50 ? l volume to each well to give the desired final concentration. The peak increase in fluorescence intensity was recorded for each well. On each plate, four wells each served as negative (HBSS-HEPES buffer) and positive controls (standard agonists: BW245C (hDP); PGE2 (hEP1; hEP2/Gqs5; hEP3A/Gqi5; hEP4/Gqs5); PGF2 ? (hFP); carbacyclin (hIP); U-46619 (hTP), depending on receptor). The peak fluorescence change in each drug-containing well was then expressed relative to the controls.
(§4) Compounds were tested in a high-throughput (HTS) or concentration-response (CoRe) format. In the HTS format, forty-four compounds per plate were examined in duplicates at a concentration of 10^−5 M. To generate concentration-response curves, four compounds per plate were tested in duplicates in a concentration range between 10^−5 and 10^−11 M. The duplicate values were averaged. In either, HTS or CoRe format each compound was tested on at least 3 separate plates using cells from different passages to give an n≧3.

hFP = molecular target: T2, hFP (Homo sapiens, UniProt P43088); assay: FLIPR calcium signal, HEK-293(EBNA) cells; type: cell-based
T2 construct: expressed in transfected cells; host or cells: HEK-293(EBNA)
Procedure: as §1, §2, §3, §4

hDP/Gqs5 = molecular target: T3, hDP/Gqs5 (Homo sapiens, UniProt Q13258); assay: FLIPR calcium signal, HEK-293(EBNA) cells; type: cell-based
T3 construct: expressed in transfected cells; host or cells: HEK-293(EBNA)
T3 sequence (Q13258 1-359): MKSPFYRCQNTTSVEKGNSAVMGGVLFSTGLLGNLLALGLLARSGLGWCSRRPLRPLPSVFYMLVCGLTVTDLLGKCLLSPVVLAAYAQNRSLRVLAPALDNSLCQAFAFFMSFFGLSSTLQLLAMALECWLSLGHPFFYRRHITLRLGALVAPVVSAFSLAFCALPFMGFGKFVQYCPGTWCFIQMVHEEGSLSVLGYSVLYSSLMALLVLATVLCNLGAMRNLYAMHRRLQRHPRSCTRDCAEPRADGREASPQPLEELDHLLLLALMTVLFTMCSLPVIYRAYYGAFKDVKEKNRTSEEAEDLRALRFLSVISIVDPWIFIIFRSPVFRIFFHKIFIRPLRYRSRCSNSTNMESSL
Procedure: as §1, §2, §3, §4

hIP = molecular target: T4, hIP (Homo sapiens, UniProt P43119); assay: FLIPR calcium signal, HEK-293(EBNA) cells; type: cell-based
T4 construct: expressed in transfected cells; host or cells: HEK-293(EBNA)
Procedure: as §1, §2, §3, §4

hEP1 = molecular target: T5, hEP1 (Homo sapiens, UniProt P34995); assay: FLIPR calcium signal, HEK-293(EBNA) cells; type: cell-based
T5 construct: expressed in transfected cells; host or cells: HEK-293(EBNA)
T5 sequence (P34995 1-402): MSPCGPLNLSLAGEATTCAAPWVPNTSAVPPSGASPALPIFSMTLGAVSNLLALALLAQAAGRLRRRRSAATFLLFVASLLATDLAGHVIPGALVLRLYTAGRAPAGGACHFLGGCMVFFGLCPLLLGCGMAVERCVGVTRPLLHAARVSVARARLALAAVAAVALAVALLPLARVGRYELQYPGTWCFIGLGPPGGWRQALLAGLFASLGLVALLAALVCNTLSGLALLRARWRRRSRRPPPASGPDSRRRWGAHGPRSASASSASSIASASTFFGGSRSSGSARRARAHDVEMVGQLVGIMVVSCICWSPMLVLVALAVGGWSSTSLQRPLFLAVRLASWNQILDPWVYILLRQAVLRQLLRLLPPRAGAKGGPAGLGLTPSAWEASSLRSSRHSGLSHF
Procedure: as §1, §2, §3, §4

hTP = molecular target: T6, hTP (Homo sapiens, UniProt P21731); assay: FLIPR calcium signal, HEK-293(EBNA) cells; type: cell-based
T6 construct: expressed in transfected cells; host or cells: HEK-293(EBNA)
T6 sequence (P21731 1-343): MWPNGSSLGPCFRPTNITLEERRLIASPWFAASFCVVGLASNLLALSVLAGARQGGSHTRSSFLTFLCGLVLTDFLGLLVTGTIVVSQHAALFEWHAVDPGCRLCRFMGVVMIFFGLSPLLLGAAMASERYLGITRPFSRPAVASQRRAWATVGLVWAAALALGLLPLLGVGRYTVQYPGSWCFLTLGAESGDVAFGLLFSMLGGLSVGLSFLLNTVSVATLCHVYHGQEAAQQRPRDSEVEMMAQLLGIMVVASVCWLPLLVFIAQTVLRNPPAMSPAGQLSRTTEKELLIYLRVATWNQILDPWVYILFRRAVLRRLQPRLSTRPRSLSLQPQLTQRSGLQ
Procedure: as §1, §2, §3, §4

hEP2/Gqs5 = molecular target: T7, hEP2/Gqs5 (Homo sapiens, UniProt P43116); assay: FLIPR calcium signal, HEK-293(EBNA) cells; type: cell-based; settings: value outside the parentheses; read-out: Ca2+ Signal-EC50 (nM) EP2
T7 construct: expressed in transfected cells; host or cells: HEK-293(EBNA)
Procedure: as §1, §2, §3, §4

EP4 receptors = molecular target: T8, EP4 receptors (Homo sapiens, UniProt P35408); assay: Radioligand binding, [3H]PGE2, HEK-293 cells expressing EP4
T8 construct: expressed in transfected cells; host or cells: HEK-293 (plasma membrane fraction)
Procedure: HEK-293 cells stably expressing the human or feline FP receptor, or EP1, EP2, or EP4 receptors were washed with TME buffer, scraped from the bottom of the flasks, and homogenized for 30 sec using a Brinkman PT 10/35 polytron. TME buffer was added to achieve a final 40 ml volume in the centrifuge tubes (the composition of TME is 100 mM TRIS base, 20 mM MgCl2, […]; 10N HCl is added to achieve a pH of 7.4).
The cell homogenate was centrifuged at 19000 r.p.m. for 20 min at 4° C. using a Beckman Ti-60 rotor. The resultant pellet was resuspended in TME buffer to give a final 1 mg/ml protein concentration, as determined by Biorad assay. Radioligand binding competition assays vs. [^3H-]17-phenyl PGF2 ? (5 nM) were performed in a 100 μl volume for 60 min. Binding reactions were started by adding plasma membrane fraction. The reaction was terminated by the addition of 4 ml ice-cold TRIS-HCl buffer and rapid filtration through glass fiber GF/B filters using a Brandel cell harvester. The filters were washed 3 times with ice-cold buffer and oven dried for one hour.
[^3H-] PGE2 (specific activity 180 Ci mmol) was used as the radioligand for EP receptors. [^3H] 17-phenyl PGF2 ? was employed for FP receptor binding studies. […] 17-phenyl PGF2 ? and non-specific binding determined with 10^−5M of unlabeled PGE2, or 17-phenyl PGF2 ? , according to receptor subtype studied.

hEP4/Gqs5 = molecular target: T9, hEP4/Gqs5 (Homo sapiens, UniProt P35408); assay: FLIPR calcium signal, HEK-293(EBNA) cells; type: cell-based; settings: read-out: Ca2+ Signal-EC50 (nM) EP4
T9 construct: expressed in transfected cells; host or cells: HEK-293(EBNA)
Procedure: as §1, §2, §3, §4

Chain of EP2 (P43116 whole entry): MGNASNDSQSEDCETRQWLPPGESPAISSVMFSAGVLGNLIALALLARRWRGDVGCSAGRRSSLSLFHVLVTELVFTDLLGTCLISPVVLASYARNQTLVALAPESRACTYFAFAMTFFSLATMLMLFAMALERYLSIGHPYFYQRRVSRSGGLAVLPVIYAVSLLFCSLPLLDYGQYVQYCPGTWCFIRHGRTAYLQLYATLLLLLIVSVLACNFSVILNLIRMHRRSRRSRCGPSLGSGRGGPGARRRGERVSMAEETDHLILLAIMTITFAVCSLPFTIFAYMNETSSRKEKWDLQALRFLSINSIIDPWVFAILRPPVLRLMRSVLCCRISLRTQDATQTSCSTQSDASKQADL
T7 sequence (P43116 whole entry): as above
T8 sequence (P35408 whole entry): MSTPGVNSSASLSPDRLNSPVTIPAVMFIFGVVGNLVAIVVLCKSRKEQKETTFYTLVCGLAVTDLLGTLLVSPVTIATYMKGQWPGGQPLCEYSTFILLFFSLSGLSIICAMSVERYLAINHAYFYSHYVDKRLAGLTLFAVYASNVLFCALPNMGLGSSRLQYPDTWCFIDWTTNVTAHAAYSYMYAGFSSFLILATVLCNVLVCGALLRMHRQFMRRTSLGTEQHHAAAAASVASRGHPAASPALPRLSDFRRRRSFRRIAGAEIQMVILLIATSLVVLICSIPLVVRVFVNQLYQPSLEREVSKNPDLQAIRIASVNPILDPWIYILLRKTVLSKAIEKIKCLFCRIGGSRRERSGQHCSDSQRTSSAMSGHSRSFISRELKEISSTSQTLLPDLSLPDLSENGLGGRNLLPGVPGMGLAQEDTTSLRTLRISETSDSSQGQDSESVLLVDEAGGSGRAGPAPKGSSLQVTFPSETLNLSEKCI
T4 sequence (P43119 whole entry): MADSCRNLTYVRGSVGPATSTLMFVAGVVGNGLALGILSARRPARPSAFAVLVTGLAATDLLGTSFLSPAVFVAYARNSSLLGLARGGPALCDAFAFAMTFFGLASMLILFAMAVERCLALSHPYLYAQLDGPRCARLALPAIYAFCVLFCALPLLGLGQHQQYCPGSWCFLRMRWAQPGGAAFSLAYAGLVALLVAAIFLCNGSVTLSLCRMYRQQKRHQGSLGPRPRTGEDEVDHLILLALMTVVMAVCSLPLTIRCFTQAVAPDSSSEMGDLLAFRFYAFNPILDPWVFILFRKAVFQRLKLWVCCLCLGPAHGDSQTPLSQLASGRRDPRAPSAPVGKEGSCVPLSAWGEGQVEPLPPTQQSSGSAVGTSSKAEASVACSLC
T9 sequence (P35408 whole entry): as the sequence (P35408 whole entry) above
T2 sequence (P43088 whole entry): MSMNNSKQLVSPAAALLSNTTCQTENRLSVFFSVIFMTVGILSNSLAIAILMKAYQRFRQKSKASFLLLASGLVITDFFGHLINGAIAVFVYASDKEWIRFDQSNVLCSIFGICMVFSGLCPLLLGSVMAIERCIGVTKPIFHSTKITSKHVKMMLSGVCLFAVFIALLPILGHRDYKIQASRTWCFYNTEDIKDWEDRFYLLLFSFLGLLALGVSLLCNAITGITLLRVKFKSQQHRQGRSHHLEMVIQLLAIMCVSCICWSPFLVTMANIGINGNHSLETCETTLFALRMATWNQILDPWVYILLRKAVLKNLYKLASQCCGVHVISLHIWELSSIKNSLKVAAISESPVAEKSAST

| Ki (EP2) | EC50 (hEP3A/Gqi5) | Ca2+ Signal-EC50 (nM) FP (hFP) | Ca2+ Signal-EC50 (nM) DP (hDP/Gqs5) | Ca2+ Signal-EC50 (nM) IP (hIP) | Ca2+ Signal-EC50 (nM) EP1 (hEP1) | Ca2+ Signal-EC50 (nM) TP (hTP) | EC50 (hEP2/Gqs5) | Ki (EP4 receptors) | EC50 (hEP4/Gqs5) | Compound |
| --- | --- | --- | --- | --- | --- | --- | --- | --- | --- | --- |
| 25 nM | 25 nM | notactive | notactive | notactive | notactive | notactive | 15 nM | 1400 nM |  | CCCCCC(O)c1ccc([C@@H]2[C@@H](C/C=C\CCCC(=O)O)[C@H](Cl)C[C@H]2Cl)cc1 (some centres unmarked) [Entry 2] |
| 504 nM | 449 nM |  |  |  |  |  | 427 nM | 2360 nM | > 10000 nM | CCCCCC(O)c1ccc([C@@H]2[C@@H](C/C=C\CCCC(=O)O)[C@H](Cl)C[C@@H]2Cl)cc1 (some centres unmarked) [compound 1] |
